According to patent US20050209278A1, “Piperidinyl- and piperazinyl-sulfonylmethyl hydroxamic acids and their use as protease inhibitors” (priority 2002, published 2005):

Legend:
MMP-13 = target: T1, MMP-13 (Homo sapiens, UniProt P45452); assay: In vitro MMP inhibition, Ki determination (fluorogenic substrate II); type: biochemical; details: value not in parenthesis; read-out: MMP-13 Ki
T1 construct: made in house; host or cells: baculovirus / insect cells
In short: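 Room-temperature, 1 h incubation of APMA-activated recombinant human MMP-13 with 4 μM quenched substrate II (cleaved at Gly-Leu) in pH 7.5 Tris/NaCl/CaCl2 buffer. Inhibition appears as a slowed rise in 330/420 nm fluorescence. Single low enzyme and substrate levels were used for Ki.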

MMP-9 = target: T2, MMP-9 (Homo sapiens, UniProt P14780); assay: as above; type: biochemical; details: value not in parenthesis
T2 construct: made in house; host or cells: MMP-9-transfected HT1080 cells (spent media)
T2 sequence (P14780 107-707 limits assumed): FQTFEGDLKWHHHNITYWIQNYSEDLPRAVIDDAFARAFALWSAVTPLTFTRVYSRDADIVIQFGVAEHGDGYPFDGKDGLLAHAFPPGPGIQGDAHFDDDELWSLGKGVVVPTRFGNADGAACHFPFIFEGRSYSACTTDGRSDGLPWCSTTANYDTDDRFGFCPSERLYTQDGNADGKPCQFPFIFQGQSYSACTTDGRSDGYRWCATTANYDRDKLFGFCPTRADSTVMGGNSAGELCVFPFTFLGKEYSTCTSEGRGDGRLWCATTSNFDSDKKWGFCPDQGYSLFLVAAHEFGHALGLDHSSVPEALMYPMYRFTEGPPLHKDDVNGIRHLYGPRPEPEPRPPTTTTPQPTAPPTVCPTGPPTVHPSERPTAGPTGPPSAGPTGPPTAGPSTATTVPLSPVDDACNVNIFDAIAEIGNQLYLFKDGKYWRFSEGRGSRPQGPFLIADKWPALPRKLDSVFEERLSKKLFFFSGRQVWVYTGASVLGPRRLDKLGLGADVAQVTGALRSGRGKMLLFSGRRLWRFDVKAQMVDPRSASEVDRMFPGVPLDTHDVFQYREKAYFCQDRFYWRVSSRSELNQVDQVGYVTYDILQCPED
In short: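 HT1080-derived MMP-9, activated with APMA, trypsin or MMP-3, incubated 1 hr at room temperature with inhibitor and 4 μM fluorogenic substrate II (at or below Km) in pH 7.5 Tris/NaCl/CaCl2 buffer; ex 330/em 420 nm. Ki from Morrison-equation regression, without substrate correction.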

| Structure (SMILES) | Ki (MMP-13) | Ki (MMP-9) |
| --- | --- | --- |
| CCCCOc1ccc(N2CCN(S(=O)(=O)C3(C(=O)NO)CC3)CC2)cc1 [Example 63] | 3.16 nM | 7.71 nM |
| CCCCOc1ccc(N2CCN(S(=O)(=O)C3(C(=O)NO)CCSCC3)CC2)cc1 [Example 232] | 0.56 nM | 2.3 nM |
| O=C(NO)C1(S(=O)(=O)N2CCN(c3ccc(SC(F)(F)F)cc3)CC2)CCOCC1 [Example 170] | 0.96 nM | 17.1 nM |
| CCCc1ccc(N2CCN(S(=O)(=O)C3(C(=O)NO)CCN(c4ccc(C)cc4)CC3)CC2)cc1 [Example 171] | 21.5 nM | 6.91 nM |
| CCCCOc1ccc(N2CCN(S(=O)(=O)C3(C(=O)NO)CCN(Cc4nccn4C)CC3)CC2)cc1 [Example 245] | 0.177 nM | 0.588 nM |
| COCCN1CCC(C(=O)NO)(S(=O)(=O)N2CCN(c3ccccc3)CC2)CC1 [Example 195] | 8.07 nM | 23.2 nM |
| CCCCOc1ccc(N2CCN(S(=O)(=O)C3(C(=O)NO)CCN(C(=O)N(CC)CC)CC3)CC2)cc1 [Example 242] | 0.331 nM | 1.14 nM |
| CCCCOc1ccc(N2CCN(S(=O)(=O)C3(C(=O)NO)CCN(CCN(CC)CC)CC3)CC2)cc1 [Example 235] | 0.3 nM | 0.9 nM |
| CCCCOc1ccc(N2CCN(S(=O)(=O)C3(C(=O)NO)CCN(c4ccc(C#N)cc4)CC3)CC2)cc1 [Example 225] | 5.88 nM | 28.1 nM |
| CCCCCc1ccc(N2CCN(S(=O)(=O)C3(C(=O)NO)CCOCC3)CC2)nn1 [Example 197] | 6.05 nM | 20.2 nM |
| CCCCc1ccc(N2CCN(S(=O)(=O)C3(C(=O)NO)CCN(CCOC)CC3)CC2)cc1F [Example 173] | 0.696 nM | 0.149 nM |
| CCCc1nnc(N2CCN(S(=O)(=O)C3(C(=O)NO)CCOCC3)CC2)s1 [Example 216] | 734 nM | 596 nM |
| Cc1ccc(N2CCC(C(=O)NO)(S(=O)(=O)N3CCN(c4ccc(OCCCC(F)(F)F)cc4)CC3)CC2)cc1 [Example 161] | 2.91 nM | 134 nM |
| O=C(NO)C1(S(=O)(=O)N2CCN(c3ccc(OCC(F)(F)C(F)(F)F)cc3)CC2)CCOCC1 [Example 212] | 0.3 nM | 2.91 nM |
| CCCCOc1c(F)cc(N2CCN(S(=O)(=O)C3(C(=O)NO)CCN(CCOC)CC3)CC2)cc1F [Example 165] | 1.03 nM | 14.7 nM |
| CCCCOc1ccc(N2CCN(S(=O)(=O)C3(C(=O)NO)CCN(C(=O)N4CCN(C)CC4)CC3)CC2)cc1 [Example 230] | 0.27 nM | 0.87 nM |
| O=C(NO)C1(S(=O)(=O)N2CCN(c3ccc(-c4ccc(F)cc4)cc3)CC2)CCOCC1 [Example 208] | 0.36 nM | 0.7 nM |
| O=C(NO)C1(S(=O)(=O)N2CCN(c3ccc(OC(F)(F)C(F)F)cc3)CC2)CCSCC1 [Example 62] | 0.5 nM | 1.5 nM |
| CCCCCCc1ccc(N2CCN(S(=O)(=O)C3(C(=O)NO)CCN(CCOC)CC3)CC2)cc1 [Example 199] | 0.397 nM | 0.892 nM |
| COCCN1CCC(C(=O)NO)(S(=O)(=O)N2CCN(c3ccc(C(C)=O)cc3)CC2)CC1 [Example 174] | 3.52 nM | 28.9 nM |

| Structure (SMILES) | Ki (MMP-13) | Ki (MMP-9) |
| --- | --- | --- |
| CCCCCc1ccc(N2CCN(S(=O)(=O)C3(C(=O)NO)CCN(S(N)(=O)=O)CC3)CC2)cc1 [Example 205] | 2.4 nM | 248 nM |
| CCCCOc1ccc(N2CCN(S(=O)(=O)C3(C(=O)NO)CCN(c4cccc(C)c4)CC3)CC2)cc1 [Example 226] | 4.38 nM | 19 nM |
| CC(C)Cc1ccc(N2CCN(S(=O)(=O)C3(C(=O)NO)CCOCC3)CC2)c(F)c1 [Example 213] | 16.1 nM | 82.4 nM |
| COCCN1CCC(C(=O)NO)(S(=O)(=O)N2CCN(c3ccc(OCC(C)C)c(F)c3)CC2)CC1 [Example 166] | 0.71 nM | 2.22 nM |
| O=C(NO)C1(S(=O)(=O)N2CCN(c3ccc(Cl)nn3)CC2)CCOCC1 [Example 198] | 59.9 nM | 252 nM |
| CCCCOc1ccc(N2CCN(S(=O)(=O)C3(C(=O)NO)CCN(c4ccc(OC)c(OC)c4)CC3)CC2)cc1 [Example 229] | 1.01 nM | 4.64 nM |
| CCc1ccc(N2CCN(S(=O)(=O)C3(C(=O)NO)CCN(CCOC)CC3)CC2)cc1 [Example 193] | 1.77 nM | 3.11 nM |
| CCCCOc1ccc(N2CCN(S(=O)(=O)C3(C(=O)NO)CCN(C(=O)c4ccco4)CC3)CC2)cc1 [Example 156] | 0.31 nM | 1.2 nM |
| Cc1ccc(-c2ccc(N3CCN(S(=O)(=O)C4(C(=O)NO)CCOCC4)CC3)cc2)cc1 [Example 207] | 0.94 nM | 12.3 nM |
| CCCCCc1ccc(N2CCN(S(=O)(=O)C3(C(=O)NO)CCN(S(C)(=O)=O)CC3)CC2)cc1 [Example 237] | 1.69 nM | 2.79 nM |
| CCCCCc1ccc(N2CCN(S(=O)(=O)C3(C(=O)NO)CCN(S(=O)(=O)N(C)C)CC3)CC2)cc1 [Example 236] | 1.47 nM | 2.61 nM |
| CCCCOc1ccc(N2CCN(S(=O)(=O)C3(C(=O)NO)CCN(C(=O)NC(C)(C)C)CC3)CC2)cc1 [Example 240] | 0.327 nM | 1.03 nM |
| CCCCOc1ccc(N2CCN(S(=O)(=O)C3(C(=O)NO)CCN(c4ccsc4)CC3)CC2)cc1 [Example 223] | 1.4 nM | 66.1 nM |
| CCCCOc1ccc(N2CCN(S(=O)(=O)C3(C(=O)NO)CCN(Cc4ncc[nH]4)CC3)CC2)cc1 [Example 247] | 0.166 nM | 0.718 nM |
| CCCc1ccc(N2CCN(S(=O)(=O)C3(C(=O)NO)CCN(CCOC)CC3)CC2)cc1 [Example 200] | 1.61 nM | 0.28 nM |
| CCCCOc1ccc(N2CCN(S(=O)(=O)C3(C(=O)NO)CCS(=O)(=O)CC3)CC2)cc1 [Example 222] | 3.99 nM | 21.5 nM |
| O=C(NO)C1(S(=O)(=O)N2CCN(c3ccc(OCCN4CCCC4)cc3)CC2)CCOCC1 [Example 162] | 7.71 nM | 402 nM |
| CCCCOc1ccc(N2CCN(S(=O)(=O)C3(C(=O)NO)CCN(c4nccs4)CC3)CC2)cc1 [Example 157] | 1.02 nM | 4.28 nM |
| COCCN1CCC(C(=O)NO)(S(=O)(=O)N2CCN(c3ccc(CCCCC(C)C)cc3)CC2)CC1 [Example 191] | 0.578 nM | 4.21 nM |
| COCCN1CCC(C(=O)NO)(S(=O)(=O)N2CCN(c3ccc(C)cc3)CC2)CC1 [Example 194] | 4.06 nM | 7.19 nM |

More lines, in order of falling Ki (MMP-13), values ahead:

| Ki (MMP-13) | Ki (MMP-9) | Structure (SMILES) |
| --- | --- | --- |
| 1890 nM | > 10000 nM | O=C(NO)C1(S(=O)(=O)N2CCN(c3nncs3)CC2)CCOCC1 [Example 215] |
| 156 nM | 1380 nM | O=C(NO)C1(S(=O)(=O)N2CCN(c3ccc4c(c3)OC(F)(F)C(F)(F)O4)CC2)CCOCC1 [Example 67] |
| 56.1 nM | 79.6 nM | COCCN1CCC(C(=O)NO)(S(=O)(=O)N2CCN(c3nc4ccccc4o3)CC2)CC1 [Example 196] |
| 3.52 nM | 14.6 nM | CCCCOc1ccc(N2CCN(S(=O)(=O)C3(C(=O)NO)CCN(c4ccc5c(c4)OCO5)CC3)CC2)cc1 [Example 221] |
| 2.03 nM | 2.29 nM | O=C(NO)C1(S(=O)(=O)N2CCN(c3cnc(CCC(F)(F)F)cn3)CC2)CCOCC1 [Example 218] |
| 1.93 nM | 9.11 nM | COCCN1CCC(C(=O)NO)(S(=O)(=O)N2CCN(c3ccc(CC(C)C)cc3)CC2)CC1 [Example 192] |
| 1.79 nM | 17.2 nM | COCCSc1ccc(N2CCN(S(=O)(=O)C3(C(=O)NO)CCOCC3)CC2)cc1 [Example 227] |
| 1.36 nM | 3.48 nM | COCCN1CCC(C(=O)NO)(S(=O)(=O)N2CCN(c3ccc(Br)cc3)CC2)CC1 [Example 201] |
| 1.21 nM | 0.45 nM | CCCCc1ccc(N2CCN(S(=O)(=O)C(C)C(=O)NO)CC2)nc1 (centres unmarked) [Example 217] |
| 1.06 nM | 4.74 nM | CCCCOc1ccc(N2CCN(S(=O)(=O)C3(C(=O)NO)CCN(c4ccc(N(C)C)cc4)CC3)CC2)cc1 [Example 241] |
| 0.847 nM | 18.6 nM | CCCCC(=O)c1ccc(N2CCN(S(=O)(=O)C3(C(=O)NO)CCN(CCOC)CC3)CC2)cc1 [Example 177] |
| 0.842 nM | 3.76 nM | CCC(C)Cc1ccc(N2CCN(S(=O)(=O)C3(C(=O)NO)CCN(CCOC)CC3)CC2)cc1 (centres unmarked) [Example 190] |
| 0.587 nM | 1.93 nM | CCCCOc1ccc(N2CCN(S(=O)(=O)C3(C(=O)NO)CCN(c4ncccn4)CC3)CC2)cc1 [Example 159] |
| 0.53 nM | 2.49 nM | CCCCOc1ccc(N2CCN(S(=O)(=O)C3(C(=O)NO)CCN(CCCC(F)(F)F)CC3)CC2)cc1 [Example 238] |
| 0.417 nM | 1.79 nM | CCCCOc1ccc(N2CCN(S(=O)(=O)C3(C(=O)NO)CCN(C(=O)c4cccs4)CC3)CC2)cc1 [Example 160] |
| 0.396 nM | 1.74 nM | CCCCOc1ccc(N2CCN(S(=O)(=O)C3(C(=O)NO)CCN(Cc4ccc(C)o4)CC3)CC2)cc1 [Example 246] |
| 0.37 nM | 0.46 nM | CCCCCc1ccc(N2CCN(S(=O)(=O)C3(C(=O)NO)CCN(C(C)=O)CC3)CC2)cc1 [Example 239] |
| 0.35 nM | 2.5 nM | O=C(NO)C1(S(=O)(=O)N2CCN(c3ccc(OC(F)(F)F)cc3)CC2)CCN(C2CC2)CC1 [Example 203] |
| 0.26 nM | 0.972 nM | CCCCOc1ccc(N2CCN(S(=O)(=O)C3(C(=O)NO)CCN(CCN4CCOCC4)CC3)CC2)cc1 [Example 233] |
| 0.24 nM | 0.7 nM | CCCCOc1ccc(N2CCN(S(=O)(=O)C3(C(=O)NO)CCN(C(=O)N4CCCCC4)CC3)CC2)cc1 [Example 243] |
| 0.16 nM | 12.3 nM | COc1ccc(-c2ccc(N3CCN(S(=O)(=O)C4(C(=O)NO)CCOCC4)CC3)nc2)cc1 [Example 61] |
